We go through ten compounds from patent publication US20210315886A1, “IMIDAZOTETRAZINE COMPOUNDS” (The Board of Trustees of the University of Illinois, priority 2018, published 2021).

“Also recorded” adds a separate entry of the source. Read-outs that look alike come from different tables or passages of the source.

Data set [1] has as its system panel of human GBM cell lines. Kind of data set: Anticancer activity against panel of human GBM cell lines. The settings on record: for activity relative to TMZ in MGMT-deficient cell lines: MGMT-deficient U87 and D54 cell lines; for anticancer activity in cell culture: across all cell lines / in culture; for IC50: Homo sapiens. It is filed as cell-based. As to the method:
Anticancer activity of C8 substituted imidazotetrazines. With a suite of imidazotetrazines in hand, each compound was evaluated against a panel of human GBM cell lines (Table 1a, Table 1b).

A short description of data set [2]: Mouse liver microsome stability assay. The settings on record: for stability to mouse liver microsomes: 2 hours. In kind it is in vitro ADME. As to the method: Mouse Liver Microsome Stability Assay. A mixture of PBS (pH 7.4), NADPH regenerating system solution A (Corning Life Sciences), and NADPH regenerating system solution B (Corning Life Sciences) was incubated at 37° C. in a shaking incubator for 5 min. Next, compound was added in DMSO (final concentration 50 μM, 0.5% DMSO) before ice-cold mouse liver microsomes (Thermo Fisher, male CD-1 mice, pooled) were added (final protein concentration of 1 mg/mL). An aliquot was immediately removed, quenched with an equal volume of 100 μM internal standard and 0.5% hydrochloric acid in ice-cold acetonitrile, and centrifuged at 13,000 rcf for 3 min. The supernatant was diluted 1:5 in ddH2O and analyzed by LC-MS. The reactions were incubated at 37° C. in a shaking incubator for 2 h. A second aliquot was removed, quenched and diluted as before and analyzed by LC-MS. The ratio of the areas of analyte: internal standard at 2 hours was compared to the ratio at t0 to determine the percentage of compound remaining. Analysis was performed on an Agilent 6230 LC/MS TOF system with a 1.8 μm, 2.1×50 mm Agilent ZORBAX Eclipse Plus C18 column.
(In general: Microsomes from liver hold many membrane-bound enzymes, among them those of drug oxidation.)

In data set [3] the test system is GBM Br23c oncospheres intracranially implanted. Nature of the data set: Intracranial mouse model of GBM (Br23c oncospheres). In kind it is in vivo. The settings on record: for increase of median survival over TMZ: equimolar to 15 mg/kg TMZ, once-per-day, 5×/week for 7 weeks. From the text:
FIG. 5. Evaluation of imidazotetrazines in intracranial mouse models of GBM. GBM Br23c oncospheres were intracranially implanted into female athymic nude mice. Treatment was started 5 days post implantation. […] Compounds were formulated in 10% PEG in PBS immediately prior to each treatment. Number of mice per treatment cohort ≥5. Survival curves were compared using log-rank test.
in vivo Efficacy Models. Human GBM Br23c stem-like neurosphere cells were intracranially implanted in female athymic nude mice (150,000 cells/mouse). […] Mice were observed daily for any signs of deterioration, neurotoxicity, or movement disorders. They were inspected for signs of pain and distress, as in accordance with the Johns Hopkins Animal Care and Use Guidelines.

A short description of data set [4]: Hydrolytic stability in buffered saline (HPLC assay). The settings on record: aqueous solution, PBS at pH 7.4. It is filed as physicochemical. From the text: Hydrolytic stability of C8 substituted imidazotetrazines.
Another data set relates to T98G cells. Nature of the data set: Cytotoxicity in T98G cells with or without O6BG pre-treatment. It is filed as cell-based, human. Here is the method:
FIG. 4. Imidazotetrazines were added to T98G cells with or without 3 h pre-treatment of O6BG (100 μM). IC50 values after 7-day incubation and fold changes between (+/−) O6BG treatments are reported. […] Error is SEM, n≥3. Statistical significance was determined by using a two-sample Student's t-test (two-tailed test, assuming equal variance).
After 8 hours of incubation with compound, the genomic DNA was isolated, quantified, and hydrolyzed to its constituent deoxyribonucleosides, which were quantitated via LC-MS/MS analysis. […] O6BG is a pseudosubstrate for MGMT that quenches cellular stores of the enzyme, leading to the persistence of O^6-methylguanine DNA adducts.

Data set [5] can be described thus: Assessment of hematological toxicity. It is filed as in vivo. The settings on record: mice, single IV dose 125 mg/kg, blood counts after 7 days. Here is the method:
Assessment of hematological toxicity. […] Both lymphocyte (FIG. 3b) and neutrophil (FIG. 8a) concentrations were decreased in TMZ-treated mice. […] Total WBC, lymphocyte, and neutrophil counts for mice treated with these compounds were equivalent to those of control mice.
Assessment of Hematological Toxicity. Male CD-1 IGS mice (n=4 mice/group) were administered a single dose of 125 mg/kg compound intravenously. Imidazotetrazines were formulated with SBEβCD in sterile water immediately prior to injection. Seven days post-treatment, mice were humanely sacrificed and whole blood was collected for assessment of total white blood cells, lymphocytes, neutrophils, platelets, and red blood cells.

The test system of another data set is U87 cells. Kind of data set: Cell viability, Alamar Blue, 7 days, U87. In kind it is cell-based. The settings on record: Homo sapiens, U-87 MG, 168 h, Table 1a, MGMT −. From the text:
Cell Culture and Reagents.
(Resazurin is reduced to fluorescent resorufin, in cell work by metabolically active cells.)

The conditions of data set [6]: cited from earlier work.

Regarding `CCSC(=O)c1ncn2c(=O)n(C)nnc12` [Compound 10, S-ethyl 3-methyl-4-oxo-3,4-dihydroimidazo[5,1-d][1,2,3,5]tetrazine-8-carbothioate], in data set [1], the “activity relative to TMZ in MGMT-deficient cell lines” value (shortened to “activity relative to TMZ”) was “activity comparable to TMZ”.
Regarding `CNC(=O)c1ncn2c(=O)n(C)nnc12` [Compound 4, N,3-dimethyl-4-oxo-3,4-dihydroimidazo[5,1-d][1,2,3,5]tetrazine-8-carboxamide], the “stability to mouse liver microsomes” value in data set [2] was “some susceptibility to the effects of the microsomes”. Further, the “anticancer activity in cell culture” value in data set [1] is listed as “retained activity in culture”. Besides, the “increase of median survival over TMZ” value in data set [3] (oral) amounted to 24%.
As usually defined, the half-life is the time needed for the level to fall by half in the phase considered. The compound `Cn1nnc2c(-c3ccccc3)ncn2c1=O` [Compound 23, 3-methyl-8-phenylimidazo[5,1-d][1,2,3,5]tetrazin-4(3H)-one] displayed a half-life in data set [4] of more than 20 h. Further, in data set [1], the “activity relative to TMZ” value was “as (or more) potent than TMZ” and the “anticancer activity in cell culture” value was “most active across all cell lines”.
With `Cn1nnc2c(Cl)ncn2c1=O` [Compound 19, 8-chloro-3-methylimidazo[5,1-d][1,2,3,5]tetrazin-4(3H)-one], the “stability to mouse liver microsomes” value in data set [2] is on record as “generally stable to oxidative metabolism”. For the same compound, in data set [1], the “activity relative to TMZ” value is “as (or more) potent than TMZ” and the “anticancer activity in cell culture” value is “retained activity in culture”.
Consider `Cc1ncn2c(=O)n(C)nnc12` [Compound 14, 3,8-dimethylimidazo[5,1-d][1,2,3,5]tetrazin-4(3H)-one], for which the half-life in data set [4] was more than 20 h. In data set [1], the “activity relative to TMZ” value is listed as “as (or more) potent than TMZ” and the “anticancer activity in cell culture” value was “most active across all cell lines”. Moreover, the “effect on survival in intracranial model” value in data set [3] (oral, 15 mg/kg TMZ or equimolar dose, 15 mg/kg) is “lack of in vivo efficacy”.
What is called IC50 is the midpoint of a concentration-inhibition curve. Turning to `CC(=O)c1ncn2c(=O)n(C)nnc12` [Compound 17, 8-acetyl-3-methylimidazo[5,1-d][1,2,3,5]tetrazin-4(3H)-one], the “Fold Change between (+/−) O6BG IC50” value in the data set on T98G cells is reported as 8. In addition, in data set [2], the “stability to mouse liver microsomes” value was “generally stable to oxidative metabolism”. For the same compound, in data set [5] (listed as K-TMZ, 125 mg/kg), the “myelosuppression / WBC toxicity” value was “did not produce myelosuppression; also recorded: significantly less in vivo toxicity to WBCs”. Also, in data set [1], the “activity relative to TMZ” value was “effective against MGMT-deficient cell lines” and the “anticancer activity in cell culture” value is given as “retained activity in culture”. Further, the “potency compared to TMZ” value in data set [1] (in culture, despite shorter aqueous half-life) is recorded as “equipotent to TMZ”. In data set [3] (oral gavage, 14.9 mg/kg once-per-day for 5 total doses), the “extension of median survival past TMZ-treated mice” value was “more than 50 days”. This compound showed a half-maximal inhibitory concentration (IC50) in the data set on U87 cells of 44 ± 6 µM.
For `Cc1cnc(-c2ncn3c(=O)n(C)nnc23)o1` [Compound 27, 3-methyl-8-(5-methyloxazol-2-yl)imidazo[5,1-d][1,2,3,5]tetrazin-4(3H)-one], in the data set on T98G cells, the “Fold Change between (+/−) O6BG IC50” value is 20. Moreover, in data set [1], the “activity relative to TMZ” value is listed as “as (or more) potent than TMZ” and the “anticancer activity in cell culture” value is recorded as “retained activity in culture”.
In the case of `CCCCN(CCCC)C(=O)c1ncn2c(=O)n(C)nnc12` [Compound 7, N,N-dibutyl-3-methyl-4-oxo-3,4-dihydroimidazo[5,1-d][1,2,3,5]tetrazine-8-carboxamide], the “Stability (2 h, Microsomes)” value in data set [2] (2 h, percentage remaining relative to t0) was determined as 1 ± 1%. In data set [2], the “stability to mouse liver microsomes” value is listed as “markedly less stability in liver microsomes”.
As to `CN(C)C(=O)c1ncn2c(=O)n(C)nnc12` [Compound 5, N,N,3-trimethyl-4-oxo-3,4-dihydroimidazo[5,1-d][1,2,3,5]tetrazine-8-carboxamide], the “Fold Change between (+/−) O6BG IC50” value in the data set on T98G cells was determined as 10. Besides, the “stability to mouse liver microsomes” value in data set [2] was “some susceptibility to the effects of the microsomes”. Also, the “anticancer activity in cell culture” value in data set [1] was “retained activity in culture”. In addition, in data set [3] (oral), the “increase of median survival over TMZ” value amounted to 46%.
For `Cn1nnc2c(C(N)=O)ncn2c1=O` [TMZ, temozolomide, reference compound], the “stability to mouse liver microsomes” value in data set [2] is reported as “insensitive to metabolic perturbation”. Further, the incidence of myelotoxicity in data set [6] (TMZ-treated patients) was approximately 20%. The half-life in data set [6] (in vivo, in humans (b7: also in aqueous solutions in vitro)) is approximately 2 h. In addition, the “myelosuppression / WBC toxicity” value in data set [5] is listed as “white blood cell (WBC) depletion”. Besides, the half-maximal inhibitory concentration (IC50) in data set [1] (GBM cell lines with negligible MGMT expression, read-out: IC50 in cell lines with negligible MGMT expression) is not above 50 µM; in data set [1] (GBM cell lines with significant MGMT expression, read-out: IC50 in cell lines with significant MGMT expression), more than 300 µM.
